Test results: PubChem BioAssay (NCI)
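Growth conditions: 96-well plates. Treatment: test compound, 48 hours, 5 concentrations. Analysis: linear interpolation between bracketing concentrations; unreached endpoints set to highest concentration. The concentration for full growth arrest is given as TGI.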

What was measured:
Test in all cases: NCI tumour cell line growth inhibition, 48 h
M14 melanoma = test system: M14 melanoma
U251 CNS = test system: U251 CNS
LXFL 529 NSCLC = test system: LXFL 529 NSCLC
NCI-H226 lung = test system: NCI-H226 lung
KM12 colon = test system: KM12 colon
SN12C renal = test system: SN12C renal
HL-60(TB) leukemia = test system: HL-60(TB) leukemia
UACC-62 melanoma = test system: UACC-62 melanoma
OVCAR-3 ovarian = test system: OVCAR-3 ovarian
A549 NSCLC = test system: A549 NSCLC
M19-MEL melanoma = test system: M19-MEL melanoma
ACHN renal = test system: ACHN renal
EKVX NSCLC = test system: EKVX NSCLC
COLO 205 colon = test system: COLO 205 colon
XF 498 CNS = test system: XF 498 CNS
TK-10 renal = test system: TK-10 renal
UO-31 renal = test system: UO-31 renal
DMS 114 small cell lung = test system: DMS 114 small cell lung
HOP-18 NSCLC = test system: HOP-18 NSCLC
SW-620 colon = test system: SW-620 colon
SK-MEL-2 melanoma = test system: SK-MEL-2 melanoma
RPMI-8226 leukemia = test system: RPMI-8226 leukemia
OVCAR-5 ovarian = test system: OVCAR-5 ovarian
SK-MEL-5 melanoma = test system: SK-MEL-5 melanoma
SNB-19 CNS = test system: SNB-19 CNS
IGROV1 ovarian = test system: IGROV1 ovarian
K-562 leukemia = test system: K-562 leukemia
HCT-15 colon = test system: HCT-15 colon
HCC-2998 colon = test system: HCC-2998 colon
CCRF-CEM leukemia = test system: CCRF-CEM leukemia
HT29 colon = test system: HT29 colon
786-0 renal = test system: 786-0 renal
UACC-257 melanoma = test system: UACC-257 melanoma
LOX IMVI melanoma = test system: LOX IMVI melanoma
SK-MEL-28 melanoma = test system: SK-MEL-28 melanoma
RXF 393 renal = test system: RXF 393 renal
MOLT-4 leukemia = test system: MOLT-4 leukemia
DLD-1 colon = test system: DLD-1 colon
HOP-92 NSCLC = test system: HOP-92 NSCLC
SR leukemia = test system: SR leukemia
A498 renal = test system: A498 renal
NCI-H522 lung = test system: NCI-H522 lung
KM20L2 colon = test system: KM20L2 colon
SNB-75 CNS = test system: SNB-75 CNS
MALME-3M melanoma = test system: MALME-3M melanoma
SK-OV-3 ovarian = test system: SK-OV-3 ovarian
RXF-631 renal = test system: RXF-631 renal
NCI-H460 lung = test system: NCI-H460 lung
SF-539 CNS = test system: SF-539 CNS
SF-295 CNS = test system: SF-295 CNS
SF-268 CNS = test system: SF-268 CNS
OVCAR-8 ovarian = test system: OVCAR-8 ovarian
HCT-116 colon = test system: HCT-116 colon
NCI-H23 lung = test system: NCI-H23 lung
HOP-62 NSCLC = test system: HOP-62 NSCLC
P388/ADR leukemia = test system: P388/ADR leukemia
SN12K1 renal = test system: SN12K1 renal
MCF7 breast = test system: MCF7 breast
P388 leukemia = test system: P388 leukemia
SNB-78 CNS = test system: SNB-78 CNS
NCI/ADR-RES ovarian = test system: NCI/ADR-RES ovarian
DMS 273 small cell lung = test system: DMS 273 small cell lung
CAKI-1 renal = test system: CAKI-1 renal
OVCAR-4 ovarian = test system: OVCAR-4 ovarian
HS 578T breast = test system: HS 578T breast
T-47D breast = test system: T-47D breast
MDA-MB-231 breast = test system: MDA-MB-231 breast
MDA-N = test system: MDA-N
PC-3 prostate = test system: PC-3 prostate
MDA-MB-435 = test system: MDA-MB-435
DU-145 prostate = test system: DU-145 prostate
BT-549 breast = test system: BT-549 breast

Measured: TGI

C=CC[P@]1(=O)O[C@H](c2ccccc2)C(C)N1C(C)C (stereo not given in full)
not listed: P388/ADR leukemia | SN12K1 renal | MCF7 breast | P388 leukemia | SNB-78 CNS | NCI/ADR-RES ovarian | DMS 273 small cell lung | CAKI-1 renal | OVCAR-4 ovarian | HS 578T breast | T-47D breast | MDA-MB-231 breast | MDA-N | PC-3 prostate | MDA-MB-435 | DU-145 prostate | BT-549 breast
> 100 µM: all other assays above

CC1[C@@]2(O[C@@H]3C=C4C5CCC6Cc7nc8c(nc7C[C@@]6(C)C5C[C@H](O)[C@@]4(C)[C@]13O)CC1CCc3c(cc4c5c3C(O)C[C@H]5[C@@H](C)C3(O4)OC(C)(C)CC3O)[C@]1(C)C8)O[C@@](C)(CO)C[C@@H]2O (stereo not given in full)
2.65 µM: SF-268 CNS
2.22 µM: MALME-3M melanoma
0.59 µM: A498 renal
1.07 µM: COLO 205 colon
1.48 µM: OVCAR-5 ovarian
0.748 µM: UACC-62 melanoma
0.21 µM: RPMI-8226 leukemia
2.39 µM: NCI-H522 lung
2.35 µM: NCI-H226 lung
0.263 µM: HOP-62 NSCLC
2.33 µM: SNB-78 CNS
0.248 µM: XF 498 CNS
1.65 µM: HT29 colon
0.182 µM: SF-295 CNS
0.372 µM: SNB-75 CNS
0.153 µM: RXF 393 renal
0.976 µM: SK-OV-3 ovarian
0.586 µM: U251 CNS
1.1 µM: SW-620 colon
0.117 µM: DMS 273 small cell lung
0.937 µM: SN12K1 renal
not listed: M14 melanoma | LXFL 529 NSCLC | ACHN renal | TK-10 renal | 786-0 renal | SK-MEL-28 melanoma | MOLT-4 leukemia | HOP-92 NSCLC | SR leukemia | RXF-631 renal | NCI-H23 lung | OVCAR-4 ovarian | HS 578T breast | T-47D breast | MDA-MB-231 breast | MDA-N | PC-3 prostate | MDA-MB-435 | DU-145 prostate | BT-549 breast
> 3.72 µM: all other assays above

S=C1SCC2CCCN12 (stereo not given)
not listed: NCI-H226 lung | OVCAR-3 ovarian | EKVX NSCLC | XF 498 CNS | SK-MEL-28 melanoma | NCI-H23 lung | P388/ADR leukemia | SN12K1 renal | MCF7 breast | P388 leukemia | NCI/ADR-RES ovarian | HS 578T breast | T-47D breast | MDA-MB-231 breast | MDA-N | PC-3 prostate | MDA-MB-435 | DU-145 prostate | BT-549 breast
> 100 µM: all other assays above

COc1cc(/C=C/c2ccc(OC)c(OC)c2)oc(=O)c1
> 116 µM: EKVX NSCLC
> 114 µM: CAKI-1 renal
> 11.6 µM: OVCAR-8 ovarian
> 216 µM: RXF 393 renal
> 227 µM: SNB-75 CNS
> 184 µM: HL-60(TB) leukemia
not listed: M14 melanoma | LXFL 529 NSCLC | ACHN renal | TK-10 renal | 786-0 renal | SR leukemia | RXF-631 renal | HS 578T breast | T-47D breast | MDA-MB-231 breast | MDA-N | PC-3 prostate | MDA-MB-435 | DU-145 prostate | BT-549 breast
> 250 µM: all other assays above

Cc1ccc(C(=O)Nc2ccc(S(=O)(=O)O)c3cc(S(=O)(=O)O)cc(S(=O)(=O)O)c23)cc1NC(=O)c1cccc(NC(=O)Nc2cccc(C(=O)Nc3cc(C(=O)Nc4ccc(S(=O)(=O)O)c5cc(S(=O)(=O)O)cc(S(=O)(=O)O)c45)ccc3C)c2)c1
> 89.4 µM: NCI-H226 lung
87.3 µM: UO-31 renal
> 89.7 µM: TK-10 renal
90.5 µM: XF 498 CNS
> 93.3 µM: HOP-18 NSCLC
not listed: RXF-631 renal | P388/ADR leukemia | SN12K1 renal | P388 leukemia
> 100 µM: all other assays above

O=C(c1ccccc1)c1nc2c(Cl)ccc(Cl)c2cc1C(Br)Br
1.54 µM: UACC-257 melanoma
2.55 µM: KM12 colon
12.4 µM: IGROV1 ovarian
2.81 µM: TK-10 renal
1.33 µM: CCRF-CEM leukemia
7.59 µM: OVCAR-8 ovarian
3.11 µM: SNB-19 CNS | HOP-62 NSCLC
0.637 µM: SK-MEL-28 melanoma
1.19 µM: SW-620 colon
7.13 µM: MOLT-4 leukemia
2.9 µM: NCI-H522 lung
2.7 µM: SK-MEL-5 melanoma
4.92 µM: HCC-2998 colon
14.5 µM: COLO 205 colon
3.51 µM: CAKI-1 renal
1.76 µM: SF-539 CNS
6.19 µM: DMS 114 small cell lung
3.61 µM: NCI-H226 lung
1.77 µM: K-562 leukemia
3.17 µM: HOP-18 NSCLC
2.96 µM: SF-268 CNS
13.1 µM: SR leukemia
3.86 µM: RXF-631 renal
2.6 µM: SF-295 CNS
0.983 µM: 786-0 renal
1.55 µM: LXFL 529 NSCLC
2.51 µM: KM20L2 colon
2.29 µM: XF 498 CNS | OVCAR-5 ovarian
3.48 µM: OVCAR-4 ovarian
4.34 µM: SK-MEL-2 melanoma
5.94 µM: SNB-78 CNS
5.66 µM: MALME-3M melanoma
2.88 µM: HCT-15 colon
6.26 µM: M19-MEL melanoma
3.07 µM: LOX IMVI melanoma
3.01 µM: UACC-62 melanoma
1.52 µM: ACHN renal
2.24 µM: DLD-1 colon
3.14 µM: DMS 273 small cell lung
2.2 µM: RPMI-8226 leukemia
4.05 µM: RXF 393 renal
13.4 µM: A549 NSCLC
3.15 µM: OVCAR-3 ovarian
2.07 µM: SNB-75 CNS
2.38 µM: U251 CNS
2.56 µM: UO-31 renal
1.56 µM: HCT-116 colon
2.89 µM: M14 melanoma
